From US20240301372A1, “TREATMENT FOR HSV-1 USING A MEGANUCLEASE” (priority 2021, published 2024)

Test system: HSV-1
Experiment: JQ1 reactivation (shedding) mouse model
Assay type: in vivo, mice
Conditions: for shedding of HSV from mucosal surfaces: 50 mg/kg
Description: FIG. 19. Schematic for JQ1 reactivation experiment. Latent infected mice were divided into three experimental groups to determine the effect of JQ1 on HSV reactivation. As illustrated in the figure, Group 1 and Group 2 were JQ1 groups that received a 50 mg/kg intraperitoneal injection of JQ1. Group 3 was the control group, i.e., no JQ1 injection. Group 1 mice received two injections, the first JQ1 injection at 0 hrs and the second JQ1 injection at 12 hrs. Group 2 mice received one injection at 0 hrs. Group 3 mice received one control injection at 0 hrs. To determine shedding from mucosal surfaces, as an indicator of HSV reactivation, mice were swabbed at 0 hrs (control) and this swab was compared to swabs taken at 24 hours, 48 hours, and 72 hours.
To begin, the mouse model for BET induced shedding was verified. In this model, latent infected mice were divided into three experimental groups to determine the effect of the BET inhibitor, JQ1, on HSV-1 reactivation. FIG. 19. As illustrated, Group 1 and Group 2 were JQ1 groups that received 50 mg/kg intraperitoneal injection of JQ1. Group 3 was the control group, i.e., no JQ1 injection. Group 1 mice received two injections, the first JQ1 injection at 0 hrs and the second JQ1 injection at 12 hrs. Group 2 mice received one injection at 0 hrs. Group 3 mice received one control injection at 0 hrs. To determine shedding from mucosal surfaces, as an indicator of HSV-1 reactivation, mice were swabbed at 0 hrs (control) and this swab was compared to swabs taken at 24 hours, 48 hours, and 72 hours. […] FIG. 20B. […] Compare the onset and duration of viral shedding in JQ1 double dose to JQ1 single dose.

Structure (SMILES): Cc1sc2c(c1C)C(c1ccc(Cl)cc1)=N[C@@H](CC(=O)OC(C)(C)C)c1nnc(C)n1-2 [JQ1, tert-butyl (S)-2-(4-(4-chlorophenyl)-2,3,9-trimethyl-6H-thieno[3,2-f][1,2,4]triazolo[4,3-a][1,4]diazepin-6-yl)acetate]
- time of peak shedding following JQ1 injection (single dose 50 mg/kg intraperitoneal): 2 days
- shedding of HSV from mucosal surfaces (single dose 50 mg/kg intraperitoneal at 0 hrs, swabs 24, 48, 72 hours): Shedding was detected
- shedding of HSV from mucosal surfaces (two doses 50 mg/kg intraperitoneal at 0 hrs and 12 hrs): Shedding was also detected
